Patent US20240352010A1, “SUBSTITUTED 1,2,4-THIADIAZOLYL NICOTINAMIDES, SALTS OR N-OXIDES THEREOF AND THEIR USE AS HERBICIDALLY ACTIVE SUBSTANCES” (BayerAktiengesellschaft, priority 2021, published 2024)

Legend:
Assay type in all cases: in vivo
[1] = tested on: Veronica persica (VERPE); assay: Herbicidal post-emergence action, VERPE
Text: (§1) Seeds of mono- and dicotyledonous weed plants were sown in plastic pots (double sowings with one species of mono- and one species of dicotyledonous weed plants per pot), in sandy loam, covered with soil and grown under controlled growth conditions. 2 to 3 weeks after sowing, the test plants were sprayed in the single-leaf stage. The compounds according to the invention, formulated in the form of wettable powders (WP) or as emulsifiable concentrates (EC), were sprayed onto the green plant parts as an aqueous suspension or as an emulsion, with the addition of 0.5% of an additive, at an application rate of 600 litres of water per hectare (converted). The test plants were placed in the greenhouse for ca. 3 weeks under optimum growth conditions, and then the effect of the preparations is assessed visually in comparison with untreated controls (herbicidal effect in percent (%): 100% effect=plants have died, 0% effect=as control plants). […]

[2] = tested on: Poa annua (POAAN); assay: Herbicidal pre-emergence action, POAAN
Text: (§2) Seeds of mono- and dicotyledonous weed plants were sown in plastic pots (double sowings with one species of mono- and one species of dicotyledonous weed plants per pot), in sandy loam, and covered with soil. The compounds according to the invention, formulated in the form of wettable powders (WP) or as emulsifiable concentrates (EC), were applied to the surface of the covering soil as an aqueous suspension or as an emulsion, with the addition of 0.5% of an additive, at an application rate of 600 litres of water per hectare (converted). Following treatment, the pots were placed in a greenhouse and kept under optimum growth conditions for the test plants. The visual grading of the damage to the test plants is carried out after ca. 3 weeks in comparison to untreated controls (herbicidal effect in percent (%): 100% effect=plants have died, 0% effect=as control plants). Seeds of mono- and dicotyledonous weed plants were sown in plastic pots (double sowings with one species of mono- and one species of dicotyledonous weed plants per pot), in sandy loam, and covered with soil. The compounds according to the invention, formulated in the form of wettable powders (WP) or as emulsifiable concentrates (EC), were applied to the surface of the covering soil as an aqueous suspension or as an emulsion, with the addition of 0.5% of an additive, at an application rate of 600 litres of water per hectare (converted). Following treatment, the pots were placed in a greenhouse and kept under optimum growth conditions for the test plants. The visual grading of the damage to the test plants is carried out after ca. 3 weeks in comparison to untreated controls (herbicidal effect in percent (%): 100% effect=plants have died, 0% effect=as control plants).

[3] = tested on: Amaranthus retroflexus (AMARE); assay: Herbicidal pre-emergence action, AMARE
Text: as §2

[4] = tested on: Kochia scoparia (KCHSC); assay: Herbicidal post-emergence action, KCHSC
Text: as §1

[5] = tested on: Poa annua (POAAN); assay: Herbicidal post-emergence action, POAAN
Text: as §1

[6] = tested on: Matricaria inodora (MATIN); assay: Herbicidal post-emergence action, MATIN
Text: as §1

[7] = tested on: Kochia scoparia (KCHSC); assay: Herbicidal pre-emergence action, KCHSC; conditions: 1280 g/ha, visual grading after ca. 3 weeks vs untreated controls (Table A4)
Text: as §2

[8] = tested on: Stellaria media (STEME); assay: Herbicidal pre-emergence action, STEME
Text: as §2

[9] = tested on: Stellaria media (STEME); assay: Herbicidal post-emergence action, STEME
Text: as §1

[10] = tested on: Amaranthus retroflexus (AMARE); assay: Herbicidal post-emergence action, AMARE
Text: as §1

[11] = tested on: Matricaria inodora (MATIN); assay: Herbicidal pre-emergence action, MATIN
Text: as §2

[12] = tested on: Abutilon theophrasti (ABUTH); assay: Herbicidal post-emergence action, ABUTH; conditions: 1280 g/ha, assessed visually after ca. 3 weeks vs untreated controls (Table B1)
Text: (§3) Seeds of mono- and dicotyledonous weed plants were sown in plastic pots (double sowings with one species of mono- and one species of dicotyledonous weed plants per pot), in sandy loam, covered with soil and grown under controlled growth conditions. 2 to 3 weeks after sowing, the test plants were sprayed in the single-leaf stage. The compounds according to the invention, formulated in the form of wettable powders (WP) or as emulsifiable concentrates (EC), were sprayed onto the green plant parts as an aqueous suspension or as an emulsion, with the addition of 0.5% of an additive, at an application rate of 600 litres of water per hectare (converted). The test plants were placed in the greenhouse for ca. 3 weeks under optimum growth conditions, and then the effect of the preparations is assessed visually in comparison with untreated controls (herbicidal effect in percent (%): 100% effect=plants have died, 0% effect=as control plants).

[13] = tested on: Lolium rigidum (LOLRI); assay: Herbicidal pre-emergence action, LOLRI
Text: as §2

[14] = tested on: Setaria viridis (SETVI); assay: Herbicidal pre-emergence action, SETVI
Text: as §2

[15] = tested on: Digitaria sanguinalis (DIGSA); assay: Herbicidal post-emergence action, DIGSA; conditions: 1280 g/ha, assessed visually after ca. 3 weeks vs untreated controls (Table B12)
Text: as §3

[16] = tested on: Setaria viridis (SETVI); assay: Herbicidal post-emergence action, SETVI; conditions: 1280 g/ha, assessed visually after ca. 3 weeks vs untreated controls (Table B7)
Text: as §1

[17] = tested on: Echinochloa crus-galli (ECHCG); assay: Herbicidal post-emergence action, ECHCG; conditions: 1280 g/ha, assessed visually after ca. 3 weeks vs untreated controls (Table B3)
Text: as §1

[18] = 1280 g/ha, assessed visually after ca. 3 weeks vs untreated controls (Table B10)
[19] = 1280 g/ha, visual grading after ca. 3 weeks vs untreated controls (Table A7)
[20] = 1280 g/ha, visual grading after ca. 3 weeks vs untreated controls (Table A11)
[21] = 1280 g/ha, assessed visually after ca. 3 weeks vs untreated controls (Table B4)
[22] = 1280 g/ha, assessed visually after ca. 3 weeks vs untreated controls (Table B8)
[23] = 1280 g/ha, assessed visually after ca. 3 weeks vs untreated controls (Table B6)
[24] = 320 g/ha, visual grading after ca. 3 weeks vs untreated controls (Table C6)
[25] = 1280 g/ha, visual grading after ca. 3 weeks vs untreated controls (Table A9)
[26] = 1280 g/ha, assessed visually after ca. 3 weeks vs untreated controls (Table B9)
[27] = 320 g/ha, assessed visually after ca. 3 weeks vs untreated controls (Table D6)
[28] = 1280 g/ha, assessed visually after ca. 3 weeks vs untreated controls (Table B11)
[29] = 320 g/ha, visual grading after ca. 3 weeks vs untreated controls (Table C3)
[30] = 1280 g/ha, visual grading after ca. 3 weeks vs untreated controls (Table A6)
[31] = 1280 g/ha, visual grading after ca. 3 weeks vs untreated controls (Table A5)
[32] = 1280 g/ha, visual grading after ca. 3 weeks vs untreated controls (Table A8)
[33] = 320 g/ha, assessed visually after ca. 3 weeks vs untreated controls (Table D4)

SMILES | herbicidal effect in percent, VERPE [1, 18] | herbicidal effect in percent, POAAN [2, 19] | herbicidal effect in percent, AMARE [3, 20] | herbicidal effect in percent, KCHSC [4, 21] | herbicidal effect in percent, POAAN [5, 22] | herbicidal effect in percent, MATIN [6, 23] | herbicidal effect in percent, KCHSC [7] | herbicidal effect in percent, STEME [8, 24] | herbicidal effect in percent, STEME [8, 25] | herbicidal effect in percent, STEME [9, 26] | herbicidal effect in percent, AMARE [10, 27] | herbicidal effect in percent, AMARE [10, 28] | herbicidal effect in percent, MATIN [11, 29] | herbicidal effect in percent, MATIN [11, 30] | herbicidal effect in percent, SETVI [14, 32] | also measured
O=C(Nc1ncns1)c1cnccc1C1CC1 [Example I-008] | 90% | 90% | 100% | 90% | 90% | 100% | 90% | 90% | 90% | 100% | 90% | 100% |  |  |  | herbicidal effect in percent, AMARE ([3]; 320 g/ha, visual grading after ca. 3 weeks vs untreated controls (Table C8)): 90%
Cc1nsc(NC(=O)c2c(C3CC3)ccnc2Cl)n1 [Example I-011] | 90% |  |  |  |  |  |  |  | 90% | 90% |  |  | 100% | 100% |  | 
COc1nccc(C2CC2)c1C(=O)Nc1ncns1 [Example I-007] |  | 90% | 100% |  |  |  |  | 90% | 90% |  |  |  |  |  |  | 
O=C(Nc1ncns1)c1c(C2CC2(F)F)ccnc1F (stereo not shown) [Example I-002, 4-(2,2-difluorocyclopropyl)-2-fluoro-N-(1,2,4-thiadiazol-5-yl)pyridine-3-carboxamide] | 90% |  | 100% | 90% |  |  |  | 90% | 90% | 90% |  | 90% | 90% | 100% |  | 
O=C(Nc1ncns1)c1c(C2CC2)ccnc1C(F)(F)F [Example I-006] | 90% | 90% | 90% | 100% | 90% |  | 90% | 100% | 100% | 100% | 90% | 100% | 90% | 100% | 90% | herbicidal effect in percent, POAAN ([2]; 320 g/ha, visual grading after ca. 3 weeks vs untreated controls (Table C4)): 90%; herbicidal effect in percent, KCHSC ([4]; dosage printed 1280 g/ha in Table D1, assessed visually after ca. 3 weeks vs untreated controls): 90%; herbicidal effect in percent, ABUTH [12]: 90%; herbicidal effect in percent, LOLRI ([13]; 320 g/ha, visual grading after ca. 3 weeks vs untreated controls (Table C2)): 90%; herbicidal effect in percent, LOLRI [13, 31]: 90%; herbicidal effect in percent, STEME ([9]; dosage printed 1280 g/ha in Table D4, assessed visually after ca. 3 weeks vs untreated controls): 90%; herbicidal effect in percent, DIGSA [15]: 90%
CC1CC1c1ccnc(Cl)c1C(=O)Nc1ncns1 (stereo not shown) [Example I-004] | 90% |  | 100% | 90% |  | 100% |  |  | 90% | 100% | 100% | 100% |  | 90% | 90% | herbicidal effect in percent, SETVI [16]: 100%; herbicidal effect in percent, STEME [9, 33]: 90%
COc1nccc(C2CC2(F)F)c1C(=O)Nc1ncns1 (stereo not shown) [Example I-001, 4-(2,2-difluorocyclopropyl)-2-methoxy-N-(1,2,4-thiadiazol-5-yl)pyridine-3-carboxamide] |  |  |  |  |  |  |  |  |  |  |  |  | 90% | 90% |  | 
O=C(Nc1nc(Br)ns1)c1c(C2CC2)ccnc1Cl [Example I-010] | 90% |  | 90% |  | 90% | 90% | 90% |  | 100% | 90% |  | 90% | 90% | 100% |  | herbicidal effect in percent, VERPE ([1]; 320 g/ha, assessed visually after ca. 3 weeks vs untreated controls (Table D5)): 90%; herbicidal effect in percent, POAAN ([5]; 320 g/ha, assessed visually after ca. 3 weeks vs untreated controls (Table D3)): 90%; herbicidal effect in percent, MATIN ([6]; 320 g/ha, assessed visually after ca. 3 weeks vs untreated controls (Table D2)): 90%; herbicidal effect in percent, ECHCG [17]: 90%; herbicidal effect in percent, LOLRI [13, 31]: 90%; herbicidal effect in percent, STEME [9, 33]: 90%
C=C(C)c1ccnc(Cl)c1C(=O)Nc1ncns1 [Example I-009] |  |  |  |  |  |  |  |  | 90% | 90% |  | 90% |  | 100% | 100% | herbicidal effect in percent, SETVI ([14]; 320 g/ha, visual grading after ca. 3 weeks vs untreated controls (Table C5)): 90%
